Measured values reported in US10392368B2, “Pyrazolo and triazolo bicyclic compounds as JAK kinase inhibitors” (THERAVANCE BIOPHARMA R&D IP, LLC, priority 2017, dated 2019).

Columns and labels:
JAK1 = molecular target: T1, JAK1 (Homo sapiens, UniProt P23458); experiment: Biochemical JAK1 kinase assay (LanthaScreen); settings: for Ki: read-out: JAK 1 (pKi) (converted)
T1 construct: GST; purchased Life Technologies
Summary of the method: (§1)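 TR-FRET readout (520/495 nm) using Tb-labelled pTyr701 antibody after EDTA stop, following 1 h ATP-started phosphorylation of GFP-STAT1 by recombinant GST-JAK. Compounds preincubated 1 h with enzyme and substrate; pIC50 from 4-parameter fit, Cheng-Prusoff gives pKi.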

JAK2 = molecular target: T2, JAK2 (Homo sapiens, UniProt O60674); experiment: Biochemical JAK2 kinase assay (LanthaScreen); settings: for Ki: read-out: JAK 2 (pKi) (converted)
T2 construct: GST; purchased Life Technologies
Summary of the method: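 GST-tagged recombinant JAK2 pre-incubated 1 h at ambient temperature with compound and GFP-STAT1 peptide in HEPES pH 7.5/MgCl2 buffer, then ATP added for a 1 h reaction with 1% DMSO. TR-FRET read after EDTA and Tb-anti-pSTAT1 (pTyr701) addition; IC50 from 4-parameter fit, converted to pKi by Cheng-Prusoff.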

Tyk2 = molecular target: T3, Tyk2 (Homo sapiens, UniProt P29597); experiment: Biochemical Tyk2 kinase assay (LanthaScreen); settings: for Ki: read-out: Tyk 2 (pKi) (converted)
T3 construct: GST; purchased Life Technologies
Summary of the method: as §1

[1] = test system: IL-2 stimulated pSTAT5 in Tall-1 T cells; experiment: Cellular JAK3 potency assay: inhibition of IL-2 stimulated pSTAT5 in Tall-1 T cells; type: cell-based, human; settings: for IC50: Homo sapiens, TALL-1, IL-2 stimulated pSTAT5 in Tall-1 T cells, read-out: Tall-1 (pIC50) (converted); for Tall-1 (pIC50): IL-2 stimulated pSTAT5 in Tall-1 T cells
Summary of the method: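 Tall-1 human T cells (45,000/well) in phenol red-free DMEM with 10% FBS were preincubated with compound 1 h at 37 °C, then stimulated with IL-2 (final 300 ng/ml) for 30 min. Lysate pSTAT5 read by AlphaLisa; IC50 from inhibition curves, reported as pIC50 (mean±SD).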

JAK3 = molecular target: T4, JAK3 (Homo sapiens, UniProt P52333); experiment: Biochemical JAK3 kinase assay (LanthaScreen); design: GST; purchased Life Technologies; settings: for Ki: read-out: JAK 3 (pKi) (converted); for JAK3 (pKi)-JAK1 (pKi): selectivity: difference of pKi JAK3 and pKi JAK1
T4 sequence (P52333 1-1124): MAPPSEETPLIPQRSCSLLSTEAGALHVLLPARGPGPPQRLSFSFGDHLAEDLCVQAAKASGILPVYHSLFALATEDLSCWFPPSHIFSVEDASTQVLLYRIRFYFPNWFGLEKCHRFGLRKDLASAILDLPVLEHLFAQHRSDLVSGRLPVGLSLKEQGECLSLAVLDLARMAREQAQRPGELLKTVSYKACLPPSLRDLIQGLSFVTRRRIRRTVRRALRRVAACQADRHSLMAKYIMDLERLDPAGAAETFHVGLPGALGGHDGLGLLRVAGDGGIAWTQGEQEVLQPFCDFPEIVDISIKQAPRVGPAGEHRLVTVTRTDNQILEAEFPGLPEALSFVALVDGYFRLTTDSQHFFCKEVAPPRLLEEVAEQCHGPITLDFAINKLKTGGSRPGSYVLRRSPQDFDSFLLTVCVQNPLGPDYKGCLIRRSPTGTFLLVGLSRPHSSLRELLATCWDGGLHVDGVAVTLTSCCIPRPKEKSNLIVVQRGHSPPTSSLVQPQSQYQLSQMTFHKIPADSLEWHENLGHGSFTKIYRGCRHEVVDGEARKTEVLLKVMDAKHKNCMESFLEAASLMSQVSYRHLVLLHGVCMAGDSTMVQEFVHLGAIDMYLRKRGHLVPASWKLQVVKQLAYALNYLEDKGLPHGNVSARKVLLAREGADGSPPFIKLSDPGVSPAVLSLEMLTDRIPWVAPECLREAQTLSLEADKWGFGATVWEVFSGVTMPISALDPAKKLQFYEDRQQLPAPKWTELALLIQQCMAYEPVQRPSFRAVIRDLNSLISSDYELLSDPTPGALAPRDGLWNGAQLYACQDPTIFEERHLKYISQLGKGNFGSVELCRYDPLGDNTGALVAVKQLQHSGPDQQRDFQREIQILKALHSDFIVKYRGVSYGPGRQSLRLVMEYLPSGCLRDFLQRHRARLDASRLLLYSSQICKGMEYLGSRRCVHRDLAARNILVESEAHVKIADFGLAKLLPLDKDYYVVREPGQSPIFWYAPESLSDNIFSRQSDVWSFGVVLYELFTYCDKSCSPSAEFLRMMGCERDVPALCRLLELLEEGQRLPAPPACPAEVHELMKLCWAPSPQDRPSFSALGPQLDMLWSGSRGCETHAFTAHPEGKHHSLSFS
Summary of the method: as §1

T3 sequence (P29597 whole entry): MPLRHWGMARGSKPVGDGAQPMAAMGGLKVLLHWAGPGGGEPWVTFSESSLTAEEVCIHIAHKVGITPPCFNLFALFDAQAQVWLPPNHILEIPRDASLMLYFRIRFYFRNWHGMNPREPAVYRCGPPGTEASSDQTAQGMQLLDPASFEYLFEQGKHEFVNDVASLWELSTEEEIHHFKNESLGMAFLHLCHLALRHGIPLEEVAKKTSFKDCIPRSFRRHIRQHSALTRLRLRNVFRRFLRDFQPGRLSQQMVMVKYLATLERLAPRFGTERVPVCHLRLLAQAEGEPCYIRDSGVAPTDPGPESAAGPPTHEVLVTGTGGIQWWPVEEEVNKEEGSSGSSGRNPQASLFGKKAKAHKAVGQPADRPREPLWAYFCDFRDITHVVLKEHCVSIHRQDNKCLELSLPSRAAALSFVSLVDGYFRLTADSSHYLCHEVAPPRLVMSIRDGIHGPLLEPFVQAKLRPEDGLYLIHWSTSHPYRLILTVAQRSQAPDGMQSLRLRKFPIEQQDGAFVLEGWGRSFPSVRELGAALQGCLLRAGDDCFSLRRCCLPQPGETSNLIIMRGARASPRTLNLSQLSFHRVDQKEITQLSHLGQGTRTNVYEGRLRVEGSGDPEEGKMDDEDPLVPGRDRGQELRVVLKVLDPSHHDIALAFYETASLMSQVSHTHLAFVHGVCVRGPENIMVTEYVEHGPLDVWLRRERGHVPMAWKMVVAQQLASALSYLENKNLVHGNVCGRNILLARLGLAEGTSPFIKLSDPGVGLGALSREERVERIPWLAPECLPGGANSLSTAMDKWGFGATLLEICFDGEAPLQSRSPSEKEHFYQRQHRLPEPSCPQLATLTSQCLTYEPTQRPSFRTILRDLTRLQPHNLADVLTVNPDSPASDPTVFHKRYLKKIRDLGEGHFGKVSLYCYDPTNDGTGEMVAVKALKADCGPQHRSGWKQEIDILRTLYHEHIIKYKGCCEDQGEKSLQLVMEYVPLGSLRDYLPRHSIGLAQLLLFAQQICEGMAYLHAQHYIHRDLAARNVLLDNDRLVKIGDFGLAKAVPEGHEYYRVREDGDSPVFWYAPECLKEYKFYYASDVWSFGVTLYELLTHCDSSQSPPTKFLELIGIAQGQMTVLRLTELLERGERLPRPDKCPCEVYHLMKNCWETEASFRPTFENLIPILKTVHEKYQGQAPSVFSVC
T2 sequence (O60674 whole entry): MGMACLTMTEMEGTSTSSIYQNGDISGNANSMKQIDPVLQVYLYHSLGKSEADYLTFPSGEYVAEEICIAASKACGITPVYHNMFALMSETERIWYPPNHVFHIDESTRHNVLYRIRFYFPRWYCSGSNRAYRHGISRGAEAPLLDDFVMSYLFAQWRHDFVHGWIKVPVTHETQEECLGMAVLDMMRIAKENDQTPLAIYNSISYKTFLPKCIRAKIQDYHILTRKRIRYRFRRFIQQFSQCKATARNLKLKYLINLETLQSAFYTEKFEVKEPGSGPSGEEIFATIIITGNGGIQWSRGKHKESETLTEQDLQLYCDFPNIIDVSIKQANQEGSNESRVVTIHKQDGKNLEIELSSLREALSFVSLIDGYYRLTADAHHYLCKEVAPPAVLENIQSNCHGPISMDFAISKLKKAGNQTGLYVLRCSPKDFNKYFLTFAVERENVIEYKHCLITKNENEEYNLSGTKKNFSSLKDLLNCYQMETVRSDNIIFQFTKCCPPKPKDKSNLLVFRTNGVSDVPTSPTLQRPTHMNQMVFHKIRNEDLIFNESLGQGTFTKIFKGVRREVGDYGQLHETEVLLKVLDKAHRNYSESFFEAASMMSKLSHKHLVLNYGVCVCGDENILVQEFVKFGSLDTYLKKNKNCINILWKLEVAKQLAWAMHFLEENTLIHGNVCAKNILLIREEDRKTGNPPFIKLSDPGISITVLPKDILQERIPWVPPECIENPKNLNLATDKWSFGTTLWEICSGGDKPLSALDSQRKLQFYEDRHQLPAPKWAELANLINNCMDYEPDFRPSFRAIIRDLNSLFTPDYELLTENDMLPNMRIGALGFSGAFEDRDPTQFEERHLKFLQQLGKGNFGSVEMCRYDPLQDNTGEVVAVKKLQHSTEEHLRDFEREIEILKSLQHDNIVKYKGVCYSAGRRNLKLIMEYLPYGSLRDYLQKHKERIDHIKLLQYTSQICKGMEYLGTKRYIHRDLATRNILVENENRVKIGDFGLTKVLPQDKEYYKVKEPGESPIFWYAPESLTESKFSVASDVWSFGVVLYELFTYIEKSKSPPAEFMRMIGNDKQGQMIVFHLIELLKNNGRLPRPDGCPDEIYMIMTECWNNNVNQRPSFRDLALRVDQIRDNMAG
T1 sequence (P23458 whole entry): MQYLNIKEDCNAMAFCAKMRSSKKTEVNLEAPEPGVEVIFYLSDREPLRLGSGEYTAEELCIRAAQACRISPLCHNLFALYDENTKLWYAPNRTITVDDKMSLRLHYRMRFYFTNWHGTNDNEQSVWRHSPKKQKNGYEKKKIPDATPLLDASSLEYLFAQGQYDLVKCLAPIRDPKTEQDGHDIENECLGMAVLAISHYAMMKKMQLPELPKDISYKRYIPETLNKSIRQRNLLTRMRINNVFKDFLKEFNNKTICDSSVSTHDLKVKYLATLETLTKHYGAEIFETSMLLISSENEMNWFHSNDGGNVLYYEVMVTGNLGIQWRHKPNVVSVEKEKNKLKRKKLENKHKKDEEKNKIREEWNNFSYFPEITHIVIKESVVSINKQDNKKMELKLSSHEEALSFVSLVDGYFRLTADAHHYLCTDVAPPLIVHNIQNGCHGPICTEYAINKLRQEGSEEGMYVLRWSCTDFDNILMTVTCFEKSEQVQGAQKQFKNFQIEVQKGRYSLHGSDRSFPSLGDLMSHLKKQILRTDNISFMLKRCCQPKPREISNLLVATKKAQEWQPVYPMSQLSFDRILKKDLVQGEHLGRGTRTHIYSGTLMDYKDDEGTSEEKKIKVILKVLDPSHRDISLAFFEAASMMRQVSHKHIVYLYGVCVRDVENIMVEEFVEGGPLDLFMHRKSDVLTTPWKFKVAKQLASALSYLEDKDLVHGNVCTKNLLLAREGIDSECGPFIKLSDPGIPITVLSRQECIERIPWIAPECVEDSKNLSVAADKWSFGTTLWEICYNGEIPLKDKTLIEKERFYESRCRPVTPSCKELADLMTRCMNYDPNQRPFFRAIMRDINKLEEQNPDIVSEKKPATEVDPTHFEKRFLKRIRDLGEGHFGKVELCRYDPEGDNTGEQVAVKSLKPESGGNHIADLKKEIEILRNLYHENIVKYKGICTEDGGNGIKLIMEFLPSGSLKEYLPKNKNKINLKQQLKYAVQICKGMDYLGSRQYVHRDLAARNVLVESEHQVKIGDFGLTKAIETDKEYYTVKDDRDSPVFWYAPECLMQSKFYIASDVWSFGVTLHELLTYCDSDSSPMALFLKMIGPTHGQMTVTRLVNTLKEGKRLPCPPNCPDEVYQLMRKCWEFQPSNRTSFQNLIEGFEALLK

Structure (SMILES) | Ki (JAK1) | Ki (JAK2) | Ki (Tyk2) | IC50 [1] | Ki (JAK3) | JAK3 (pKi)-JAK1 (pKi) (JAK3) | JAK 1 (pKi) (JAK1) | JAK 2 (pKi) (JAK2) | Tyk 2 (pKi) (Tyk2) | Tall-1 (pIC50) [1] | JAK 3 (pKi) (JAK3)
CN(C)C/C=C/C(=O)N1CC(C(C)(C)Oc2cc(-c3ccc(O)c(F)c3)cc3[nH]ncc23)C1 [Compound 3-27] | > 100 nM | > 100 nM | > 100 nM | 31.6 to 200 nM | < 0.1 nM | A (a value of 3 or above) | – | – | – | – | –
CC1C(COc2cc(-c3ccc(O)cc3)cc3[nH]ncc23)CN1C(=O)/C=C/CN(C)C (stereo not drawn) [Compound 3-30] | – | – | – | – | – | A (a value of 3 or above) | E (a pKi value of 7 or below (Ki of 100 nM or above)) | D (a pKi value between 7 and 8 (Ki between 100 nM and 10 nM)) | E (a pKi value of 7 or below (Ki of 100 nM or above)) | B (a pIC50 value between 6.7 (included) and 7.5 (IC50 between 200 nM and 32 nM)) | A (a pKi value≥10 (Ki≤0.1 nM))
C=CC(=O)N1CC(COc2nc(-c3ccc(O)cc3)nc3[nH]ncc23)C1C (stereo not drawn) [Compound 3-31] | – | – | – | – | – | A (a value of 3 or above) | E (a pKi value of 7 or below (Ki of 100 nM or above)) | E (a pKi value of 7 or below (Ki of 100 nM or above)) | E (a pKi value of 7 or below (Ki of 100 nM or above)) | B (a pIC50 value between 6.7 (included) and 7.5 (IC50 between 200 nM and 32 nM)) | A (a pKi value≥10 (Ki≤0.1 nM))
COC1(COc2cc(-c3ccc(O)cc3)cc3[nH]ncc23)CN(C(=O)/C=C/CN(C)C)C1 [Compound 3-32] | > 100 nM | > 100 nM | > 100 nM | < 31.6 nM | 0.1 to 1 nM | A (a value of 3 or above) | – | – | – | – | –
C=CC(=O)N1CC(COc2cc(-c3ccc(O)cc3)cc3[nH]ncc23)(OC)C1 [Compound 3-33] | – | – | – | – | – | B (a value of 2.3 to 3) | E (a pKi value of 7 or below (Ki of 100 nM or above)) | E (a pKi value of 7 or below (Ki of 100 nM or above)) | E (a pKi value of 7 or below (Ki of 100 nM or above)) | B (a pIC50 value between 6.7 (included) and 7.5 (IC50 between 200 nM and 32 nM)) | B (a pKi value between 9 and 10 (Ki between 1 nM and 0.1 nM))
C=CC(=O)N1CC(COc2nc(-c3ccc(O)c(Cl)c3)cc3[nH]ncc23)C1 [Compound 3-35] | > 100 nM | > 100 nM | > 100 nM | < 31.6 nM | 0.1 to 1 nM | A (a value of 3 or above) | – | – | – | – | –
CN(C)C/C=C/C(=O)N1CC(COc2nc(-c3ccc(O)c(F)c3)cc3[nH]ncc23)C1 [Compound 3-36] | > 100 nM | > 100 nM | > 100 nM | 31.6 to 200 nM | < 0.1 nM | A (a value of 3 or above) | – | – | – | – | –
C=CC(=O)N1CC(COc2nc(-c3ccc(O)c(F)c3)cc3[nH]ncc23)C1 [Compound 3-37] | > 100 nM | 10 to 100 nM | > 100 nM | < 31.6 nM | < 0.1 nM | A (a value of 3 or above) | – | – | – | – | –
C=CC(=O)N1CC(COc2nc(-c3ccc(O)c(Cl)c3)nc3[nH]ncc23)C1 [Compound 3-38] | > 100 nM | > 100 nM | > 100 nM | 31.6 to 200 nM | < 0.1 nM | A (a value of 3 or above) | – | – | – | – | –
C=CC(=O)N1CC(COc2nc(-c3ccc(O)c(F)c3)nc3[nH]ncc23)C1 [Compound 3-39] | > 100 nM | > 100 nM | > 100 nM | 31.6 to 200 nM | < 0.1 nM | A (a value of 3 or above) | – | – | – | – | –
CN(C)C/C=C/C(=O)N1CC(F)(COc2cc(-c3ccc(O)c(F)c3)cc3[nH]ncc23)C1 [Compound 3-40] | 0.1 to 1 nM | 10 to 100 nM | > 100 nM | < 31.6 nM | < 0.1 nM | A (a value of 3 or above) | – | – | – | – | –
C=CC(=O)N1CC(F)(COc2cc(-c3ccc(O)c(F)c3)cc3[nH]ncc23)C1 [Compound 3-41] | 0.1 to 1 nM | 1 to 10 nM | > 100 nM | < 31.6 nM | 0.1 to 1 nM | B (a value of 2.3 to 3) | – | – | – | – | –
CN(C)C/C=C/C(=O)N1CC(F)(COc2cc(-c3ccc(O)c(Cl)c3)cc3[nH]ncc23)C1 [Compound 3-42] | 0.1 to 1 nM | 10 to 100 nM | > 100 nM | < 31.6 nM | 0.1 to 1 nM | B (a value of 2.3 to 3) | – | – | – | – | –
C=CC(=O)N1CC(F)(COc2cc(-c3ccc(O)c(Cl)c3)cc3[nH]ncc23)C1 [Compound 3-43] | – | – | – | – | – | A (a value of 3 or above) | E (a pKi value of 7 or below (Ki of 100 nM or above)) | D (a pKi value between 7 and 8 (Ki between 100 nM and 10 nM)) | E (a pKi value of 7 or below (Ki of 100 nM or above)) | A (a pIC50 value≥7.5 (IC50≤32 nM)) | B (a pKi value between 9 and 10 (Ki between 1 nM and 0.1 nM))
CN(C)C/C=C/C(=O)N1CC(F)(COc2nc(-c3ccc(O)cc3)cc3[nH]ncc23)C1 [Compound 3-44] | – | – | – | – | – | B (a value of 2.3 to 3) | D (a pKi value between 7 and 8 (Ki between 100 nM and 10 nM)) | D (a pKi value between 7 and 8 (Ki between 100 nM and 10 nM)) | E (a pKi value of 7 or below (Ki of 100 nM or above)) | A (a pIC50 value≥7.5 (IC50≤32 nM)) | B (a pKi value between 9 and 10 (Ki between 1 nM and 0.1 nM))
C=CC(=O)N1CC(F)(COc2nc(-c3ccc(O)cc3)nc3[nH]ncc23)C1 [Compound 3-45] | > 100 nM | > 100 nM | > 100 nM | < 31.6 nM | 0.1 to 1 nM | A (a value of 3 or above) | – | – | – | – | –
C=CC(=O)N1CC(F)(COc2cc(-c3ccc(O)cc3)nc3[nH]ncc23)C1 [Compound 3-46] | > 100 nM | > 100 nM | > 100 nM | < 31.6 nM | < 0.1 nM | A (a value of 3 or above) | – | – | – | – | –
C=CC(=O)N1CC(F)(COc2nc(-c3ccc(O)c(Cl)c3)cc3[nH]ncc23)C1 [Compound 3-47] | > 100 nM | 10 to 100 nM | > 100 nM | < 31.6 nM | 0.1 to 1 nM | B (a value of 2.3 to 3) | – | – | – | – | –
CN(C)C/C=C/C(=O)N1CC(F)(COc2nc(-c3ccc(O)c(F)c3)cc3[nH]ncc23)C1 [Compound 3-48] | – | – | – | – | – | A (a value of 3 or above) | D (a pKi value between 7 and 8 (Ki between 100 nM and 10 nM)) | D (a pKi value between 7 and 8 (Ki between 100 nM and 10 nM)) | E (a pKi value of 7 or below (Ki of 100 nM or above)) | A (a pIC50 value≥7.5 (IC50≤32 nM)) | A (a pKi value≥10 (Ki≤0.1 nM))
C=CC(=O)N1CC(F)(COc2nc(-c3ccc(O)c(F)c3)cc3[nH]ncc23)C1 [Compound 3-49] | > 100 nM | 10 to 100 nM | > 100 nM | < 31.6 nM | 0.1 to 1 nM | B (a value of 2.3 to 3) | – | – | – | – | –
